Measured values taken from patent US10556914B2, “Substituted isoxazolopyridazinones and isothiazolopyridazinones and methods of use” (AbbVie Inc., priority 2015, dated 2020).

target: GABA-B receptor (Rattus norvegicus (Rat), UniProt O88871+Q9Z0U4); test: [35S]GTPgS Binding Assay (rat brain cortex membranes, native receptor); type: biochemical; settings: rat cortical membranes; in the presence of 1 μM GABA (EC25); basal binding 0%, maximal binding (1 mM GABA) 100%
Experimental: Preparation of Rat Brain Membranes for Native Receptor Assays
Membranes from rat brain cortex were prepared as described in detail by Olpe et al. and stored at concentrations of 1.66 mg/mL protein at −80° C. until required. (Olpe, H.-R, et al. Eur J Pharmacol 1990; 187: 27-38).
[^35S]GTPgS Binding Assay
The samples were incubated at room temperature for 60 minutes on a shaker. The incubation was stopped by rapid vacuum filtration over glass-fiber filter plates (UniFilter-96 well, GF/B membrane plates, PerkinElmer) using a 96-well plate harvester (TOMTEK© Harvester). The UniFilter plate was washed five times with ice-cold wash buffer (50 mM Tris-HCl buffer, pH 7.7, 10 mM MgCl2, and 100 mM NaCl. After filtration the plate was dried for 90 minutes at 55° C. The plates were closed on the bottom with black sealing membranes, and liquid scintillation cocktail (35 μL, Betaplate Scint, PerkinElmer) was added to each well. After sealing the top of the plate, an additional incubation step of 90 minutes at room temperature followed before measuring the plate. The amount of membrane-bound [^35S]GTPgS was measured using a 96-well plate reader (Microbeta®, PerkinElmer). Nonspecific binding was measured in the presence of unlabeled 10 μM of GTPgS (Millipore) and without GABA. Basal binding was measured in the absence of 1 μM GABA, and maximal binding was measured in the presence of GABA using 1 mM GABA concentrations.
Data analysis. The concentration-response curves of compounds of the present disclosure in the presence of EC25 of GABA-B receptor agonist were generated using the GraphPad Prism® program (GraphPad Software, San Diego, Calif.). Data was normalized using basal binding as 0% and maximal binding as 100%. The curves were fitted by nonlinear regression allowing determination of EC50 values from sigmoidal dose-response curves. Each curve was performed using triplicate sample per date point and 10 concentrations.

Chain of GABA-B receptor (Q9Z0U4 17-960): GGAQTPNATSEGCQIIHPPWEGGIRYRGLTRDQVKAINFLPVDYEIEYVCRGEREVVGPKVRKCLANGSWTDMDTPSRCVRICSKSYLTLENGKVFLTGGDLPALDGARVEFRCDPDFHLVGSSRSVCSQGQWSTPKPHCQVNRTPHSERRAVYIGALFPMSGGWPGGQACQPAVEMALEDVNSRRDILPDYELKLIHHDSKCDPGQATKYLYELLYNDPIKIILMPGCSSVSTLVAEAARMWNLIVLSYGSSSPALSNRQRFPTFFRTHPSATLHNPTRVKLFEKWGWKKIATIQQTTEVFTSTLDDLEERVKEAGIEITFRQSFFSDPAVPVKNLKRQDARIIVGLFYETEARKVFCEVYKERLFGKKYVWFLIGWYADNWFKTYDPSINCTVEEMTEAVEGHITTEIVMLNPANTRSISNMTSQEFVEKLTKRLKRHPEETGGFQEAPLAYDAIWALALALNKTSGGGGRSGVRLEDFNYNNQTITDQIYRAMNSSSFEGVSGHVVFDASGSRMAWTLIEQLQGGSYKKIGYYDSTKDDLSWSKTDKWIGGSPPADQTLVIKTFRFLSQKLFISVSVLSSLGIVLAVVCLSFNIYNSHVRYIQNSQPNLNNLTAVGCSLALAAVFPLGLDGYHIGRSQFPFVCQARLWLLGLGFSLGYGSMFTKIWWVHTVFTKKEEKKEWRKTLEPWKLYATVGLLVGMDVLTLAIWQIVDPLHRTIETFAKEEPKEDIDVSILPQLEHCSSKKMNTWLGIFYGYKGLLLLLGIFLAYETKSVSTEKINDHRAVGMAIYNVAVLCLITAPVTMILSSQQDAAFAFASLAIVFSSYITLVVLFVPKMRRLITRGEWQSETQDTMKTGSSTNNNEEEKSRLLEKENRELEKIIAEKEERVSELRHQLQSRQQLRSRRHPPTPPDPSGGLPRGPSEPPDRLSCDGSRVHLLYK
Chain of GABA-B receptor (O88871 41-940): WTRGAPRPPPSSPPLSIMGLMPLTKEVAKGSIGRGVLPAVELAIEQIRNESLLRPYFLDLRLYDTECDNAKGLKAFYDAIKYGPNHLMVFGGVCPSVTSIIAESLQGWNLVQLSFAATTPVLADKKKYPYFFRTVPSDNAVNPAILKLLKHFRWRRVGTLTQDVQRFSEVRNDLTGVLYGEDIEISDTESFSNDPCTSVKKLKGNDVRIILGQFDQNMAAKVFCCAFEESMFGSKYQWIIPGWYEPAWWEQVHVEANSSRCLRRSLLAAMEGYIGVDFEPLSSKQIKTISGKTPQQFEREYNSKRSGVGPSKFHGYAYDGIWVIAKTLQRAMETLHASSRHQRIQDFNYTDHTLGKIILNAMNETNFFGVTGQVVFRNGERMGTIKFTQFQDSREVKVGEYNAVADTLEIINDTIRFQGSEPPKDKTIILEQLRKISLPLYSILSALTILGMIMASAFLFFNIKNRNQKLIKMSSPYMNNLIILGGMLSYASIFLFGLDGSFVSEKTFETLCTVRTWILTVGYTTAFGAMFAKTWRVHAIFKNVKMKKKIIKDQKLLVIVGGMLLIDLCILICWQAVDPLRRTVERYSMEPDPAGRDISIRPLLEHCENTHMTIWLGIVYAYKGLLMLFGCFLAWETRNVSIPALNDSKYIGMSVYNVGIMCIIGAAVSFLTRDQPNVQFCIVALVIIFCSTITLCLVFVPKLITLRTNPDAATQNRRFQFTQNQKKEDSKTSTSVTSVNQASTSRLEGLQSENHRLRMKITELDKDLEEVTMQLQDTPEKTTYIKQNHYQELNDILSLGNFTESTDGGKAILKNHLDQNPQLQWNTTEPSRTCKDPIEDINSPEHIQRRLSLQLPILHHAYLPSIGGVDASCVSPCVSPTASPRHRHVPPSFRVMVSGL

Row | Molecule | EC50
1 | COc1ccc(C(=O)O)cc1-c1nn(C(C)c2ccc(Cl)cc2)c(=O)c2c(C)noc12 (stereo not drawn) [Example 73] | 39 nM
2 | Cc1noc2c(-c3cccs3)nn(Cc3ccc(Cl)cc3)c(=O)c12 [Example 56, 5-(4-chlorobenzyl)-3-methyl-7-(thiophen-2-yl)[1,2]oxazolo[4,5-d]pyridazin-4(5H)-one] | 982 nM
3 | Cc1noc2c(-c3cc(C(F)(F)F)ccc3N)nn(C(C)c3ccc(Cl)cc3)c(=O)c12 (stereo not drawn) [Example 11, 7-[2-amino-5-(trifluoromethyl)phenyl]-5-[1-(4-chlorophenyl)ethyl]-3-methyl[1,2]oxazolo[4,5-d]pyridazin-4(5H)-one] | > 10000 nM
4 | CC(=O)Nc1ccc(C)c(-c2nn(Cc3ccc(C(F)(F)F)cc3)c(=O)c3c(C)noc23)c1 [Example 107, N-(4-methyl-3-{3-methyl-4-oxo-5-[4-(trifluoromethyl)benzyl]-4,5-dihydro[1,2]oxazolo[4,5-d]pyridazin-7-yl}phenyl)acetamide] | 1470 nM
5 | Cc1noc2c(-c3cnc4cc[nH]c4c3)nn(C(C)c3ccc(Cl)cc3)c(=O)c12 (stereo not drawn) [Example 116, 5-[1-(4-chlorophenyl)ethyl]-3-methyl-7-(1H-pyrrolo[3,2-b]pyridin-6-yl)[1,2]oxazolo[4,5-d]pyridazin-4(5H)-one] | 855 nM
6 | COc1ccc(OC)c(-c2nn(Cc3ccc(C(F)(F)F)cc3)c(=O)c3c(C)noc23)c1 [Example 95, 7-(2,5-dimethoxyphenyl)-3-methyl-5-[4-(trifluoromethyl)benzyl][1,2]oxazolo[4,5-d]pyridazin-4(5H)-one] | 1740 nM
7 | CCn1nccc1-c1nn(C(C)c2ccc(Cl)cc2)c(=O)c2c(C)noc12 (stereo not drawn) [Example 115, 5-[1-(4-chlorophenyl)ethyl]-7-(1-ethyl-1H-pyrazol-5-yl)-3-methyl[1,2]oxazolo[4,5-d]pyridazin-4(5H)-one] | 4120 nM
8 | COc1ccc(OC)c(-c2nn(CCc3ccc(Cl)cc3)c(=O)c3c(C)noc23)c1 [Example 10, 5-[2-(4-chlorophenyl)ethyl]-7-(2,5-dimethoxyphenyl)-3-methyl[1,2]oxazolo[4,5-d]pyridazin-4(5H)-one] | 1060 nM
9 | Cc1noc2c(-c3ccccc3)nn(Cc3ccc(Cl)cc3)c(=O)c12 [Example 122, 5-(4-chlorobenzyl)-3-methyl-7-phenyl[1,2]oxazolo[4,5-d]pyridazin-4(5H)-one] | 3800 nM
10 | CCc1noc2c(-c3cccc(NC(C)=O)c3)nn(Cc3ccc(Cl)cc3)c(=O)c12 [Example 129, N-{3-[5-(4-chlorobenzyl)-3-ethyl-4-oxo-4,5-dihydro[1,2]oxazolo[4,5-d]pyridazin-7-yl]phenyl}acetamide] | 2110 nM
11 | CNC(=O)c1ccc(OC)c(-c2nn([C@H](C)c3ccc(Cl)cc3)c(=O)c3c(C)noc23)c1 [Example 111, 3-{5-[(1R)-1-(4-chlorophenyl)ethyl]-3-methyl-4-oxo-4,5-dihydro[1,2]oxazolo[4,5-d]pyridazin-7-yl}-4-methoxy-N-methylbenzamide] | > 10000 nM
12 | CCc1nn([C@H](c2ccccc2)c2ccc(Cl)cc2)c(=O)c2c(CC)noc12 (single isomer, unassigned) [Example 75] | 1760 nM
13 | COc1ccc(-c2nn(Cc3ccc(Cl)cc3)c(=O)c3c(C)noc23)cc1 [Example 2, 5-(4-chlorobenzyl)-7-(4-methoxyphenyl)-3-methyl[1,2]oxazolo[4,5-d]pyridazin-4(5H)-one] | > 10000 nM
14 | CC(=O)Nc1cccc(-c2nn(C(C)c3ccc(Cl)cc3)c(=O)c3c(C)noc23)c1 (stereo not drawn) [Example 78, N-(3-{5-[1-(4-chlorophenyl)ethyl]-3-methyl-4-oxo-4,5-dihydro[1,2]oxazolo[4,5-d]pyridazin-7-yl}phenyl)acetamide] | 6350 nM
15 | COCc1noc2c(-c3cc(OC)ccc3OC)nn(Cc3ccc(Cl)cc3)c(=O)c12 [Example 71, 5-(4-chlorobenzyl)-7-(2,5-dimethoxyphenyl)-3-(methoxymethyl)[1,2]oxazolo[4,5-d]pyridazin-4(5H)-one] | 2210 nM
16 | COc1ccc(OC)c(-c2nn([C@H](C)c3ccc(C(F)(F)F)cc3)c(=O)c3c(C)noc23)c1 [Example 125, 7-(2,5-dimethoxyphenyl)-3-methyl-5-{(1R)-1-[4-(trifluoromethyl)phenyl]ethyl}[1,2]oxazolo[4,5-d]pyridazin-4(5H)-one] | 582 nM
17 | COc1ccc(Cn2nc(-c3ccc(F)cc3)c3onc(C)c3c2=O)cc1C(F)(F)F [Example 66, 7-(4-fluorophenyl)-5-[4-methoxy-3-(trifluoromethyl)benzyl]-3-methyl[1,2]oxazolo[4,5-d]pyridazin-4(5H)-one] | 2790 nM
18 | COc1ccc(-c2nn(Cc3ccc(F)c(C(F)(F)F)c3)c(=O)c3c(C)noc23)c(OC)c1 [Example 37, 7-(2,4-dimethoxyphenyl)-5-[4-fluoro-3-(trifluoromethyl)benzyl]-3-methyl[1,2]oxazolo[4,5-d]pyridazin-4(5H)-one] | 3670 nM
19 | CCc1nn([C@@H](c2ccccc2)c2ccc(Cl)cc2)c(=O)c2c(CC)noc12 (single isomer, unassigned) [Example 89] | 1390 nM
20 | COc1ccccc1-c1nn(Cc2ccc(Cl)cc2)c(=O)c2c(C)noc12 [Example 67, 5-(4-chlorobenzyl)-7-(2-methoxyphenyl)-3-methyl[1,2]oxazolo[4,5-d]pyridazin-4(5H)-one] | 2130 nM
21 | Cc1noc2c(-c3cc(F)cc(F)c3N)nn(C(C)c3ccc(Cl)cc3)c(=O)c12 (stereo not drawn) [Example 77, 7-(2-amino-3,5-difluorophenyl)-5-[1-(4-chlorophenyl)ethyl]-3-methyl[1,2]oxazolo[4,5-d]pyridazin-4(5H)-one] | 2480 nM
22 | 7-(4-fluorophenyl)-3-methyl-5-(pyridin-4-ylmethyl)[1,2]oxazolo[4,5-d]pyridazin-4(5H)-one [Example 74] | 3410 nM

Results, then the molecule that gave them:

Row | EC50 | Molecule
23 | 620 nM | Cc1noc2c(-c3cccc(S(N)(=O)=O)c3)nn(C(C)c3ccc(Cl)cc3)c(=O)c12 (stereo not drawn) [Example 53, 3-{5-[1-(4-chlorophenyl)ethyl]-3-methyl-4-oxo-4,5-dihydro[1,2]oxazolo[4,5-d]pyridazin-7-yl}benzenesulfonamide]
24 | 1030 nM | COc1ccc(-c2nn(Cc3ccc(Cl)cc3)c(=O)c3c(C)noc23)c(OC)c1 [Example 87, 5-(4-chlorobenzyl)-7-(2,4-dimethoxyphenyl)-3-methyl[1,2]oxazolo[4,5-d]pyridazin-4(5H)-one]
25 | 9640 nM | Cc1noc2c(-c3ccc(F)c(F)c3)nn(Cc3ccc(Cl)cc3)c(=O)c12 [Example 42, 5-(4-chlorobenzyl)-7-(3,4-difluorophenyl)-3-methyl[1,2]oxazolo[4,5-d]pyridazin-4(5H)-one]
26 | > 10000 nM | Cc1noc2c(-c3cccc(F)c3)nn(Cc3ccc(Cl)cc3)c(=O)c12 [Example 23, 5-(4-chlorobenzyl)-7-(3-fluorophenyl)-3-methyl[1,2]oxazolo[4,5-d]pyridazin-4(5H)-one]
27 | 43 nM | COc1ccc(NC(C)=O)cc1-c1nn([C@@H](C)c2ccc(Cl)cc2)c(=O)c2c(C)noc12 [Example 117, N-(3-{5-[(1S)-1-(4-chlorophenyl)ethyl]-3-methyl-4-oxo-4,5-dihydro[1,2]oxazolo[4,5-d]pyridazin-7-yl}-4-methoxyphenyl)acetamide]
28 | 2120 nM | CCCc1noc2c(-c3cccc(NC(C)=O)c3)nn(Cc3ccc(Cl)cc3)c(=O)c12 [Example 91, N-{3-[5-(4-chlorobenzyl)-4-oxo-3-propyl-4,5-dihydro[1,2]oxazolo[4,5-d]pyridazin-7-yl]phenyl}acetamide]
29 | 600 nM | Cc1noc2c(-c3cccnc3Cl)nn(C(C)c3ccc(Cl)cc3)c(=O)c12 (stereo not drawn) [Example 7, 5-[1-(4-chlorophenyl)ethyl]-7-(2-chloropyridin-3-yl)-3-methyl[1,2]oxazolo[4,5-d]pyridazin-4(5H)-one]
30 | 453 nM | CCNC(=O)c1ccc(OC)c(-c2nn(C(C)c3ccc(Cl)cc3)c(=O)c3c(C)noc23)c1 (stereo not drawn) [Example 131]
31 | 2760 nM | Cc1noc2c(-c3cccnc3N)nn(C(C)c3ccc(Cl)cc3)c(=O)c12 (stereo not drawn) [Example 86, 7-(2-aminopyridin-3-yl)-5-[1-(4-chlorophenyl)ethyl]-3-methyl[1,2]oxazolo[4,5-d]pyridazin-4(5H)-one]
32 | 1850 nM | Cc1noc2c(-c3cccc(NS(C)(=O)=O)c3)nn(C(C)c3ccc(Cl)cc3)c(=O)c12 (stereo not drawn) [Example 24, N-(3-{5-[1-(4-chlorophenyl)ethyl]-3-methyl-4-oxo-4,5-dihydro[1,2]oxazolo[4,5-d]pyridazin-7-yl}phenyl)methanesulfonamide]
33 | 33 nM | COc1ccc(NC(C)=O)cc1-c1nn([C@H](C)c2ccc(C(F)(F)F)cc2)c(=O)c2c(C)noc12 [Example 105, N-[4-methoxy-3-(3-methyl-4-oxo-5-{(1R)-1-[4-(trifluoromethyl)phenyl]ethyl}-4,5-dihydro[1,2]oxazolo[4,5-d]pyridazin-7-yl)phenyl]acetamide]
